Key:
[1] = Nanosecond transient absorption spectroscopy (triplet state lifetime); type: physicochemical; conditions: aqueous solution
Excerpt: (§1) The spectra are concentration independent in the micromolar concentration range and there is a small red shift in the series: S-OPE-1 (H), N-OPE-1=S-OPE-1 (COO—), S-OPE-1 (COOEt). […] Furthermore, we have also synthesized and carried out studies of S-OPE-1 (x) where x=NH2, COCH3, both of these compounds show similar absorption spectra to that of S-OPE-1 (COOEt). The fluorescence of all four compounds shown in Table 2 is strong in methanol and there is little variation in fluorescence efficiency among the different substituted derivatives. However there is a significant variation in the fluorescence efficiencies in aqueous solution ranging from 0.02 for S-OPE-1 (COOEt) to 0.80 for S-OPE-1 (H). […] Clearly the ester groups in N-OPE-1 and S-OPE-1 (COOEt) must play a major role in a solvent-dependent process which deactivates the excited singlet of the oligomers in water. Nanosecond transient absorption spectroscopy was carried out on the OPEs in order to monitor the triplet states. […] The transient lifetimes and spectra are consistent with a triplet state assignment. The 1max of triplet-triplet absorption shifts from 518 nm to 569 nm following the extent of conjugation: S-OPE1-H (518 nm), N-OPE-1 (533 nm), S-OPE-1 (COO—) (557 nm), then S-OPE-1 (COOEt) (569 nm). The apparent triplet yields decrease in the order of S-OPE-1 (H)>S-OPE-1 (COO—)>>N-OPE-1>>S-OPE-1 (COOEt). The triplet lifetimes follow a similar trend as the triplet yield (Table 2).

[2] = test system: Pseudomonas aeruginosa Strain PAO1; assay: Dark and light activated biocidal activity; type: cell-based; conditions: for biocidal activity: in solution and attached to surfaces; for light activated biocidal activity: short term irradiation with near ultraviolet light
Excerpt: The OPEs described herein have been synthesized and studied as dark and light activated biocides towards a Gram negative bacterium, Pseudomonas aeruginosa Strain PAO1. […] N-OPE-1 has been attached to surfaces by covalent linkage. This has been accomplished for both micron sized glass beads and glass slides.

[3] = Fluorescence quantum yields and fluorescence lifetimes in water and methanol; type: physicochemical; conditions: for φf in CH3OH / φf in H2O / τ (ns): Table 2; for τ (ns): fluorescence lifetime; for fluorescence quantum efficiency: in water, quinine sulfate standard; for Φf / τf (ns): Table 1
Excerpt: (§2) While the synthetic steps are all straight-forward, those involving conversion of the diiodobenzene to 4-(4-iodophenyl)-2-methyl-3-butyn-2-ol occur with lower yields and the desired products must be separated from structurally similar byproducts. The alkylamino groups were attached in an early step but converted to the quaternary ammonium derivatives as the last step of the synthesis. The intermediates and final products were characterized by mass spectrometry and proton and carbon NMR. […]
The absorption and fluorescence in methanol occur at very similar wavelengths. In both solvents there is no concentration dependence of the spectra in the micromolar range and it seems likely that in both solvents the N-OPE are monomeric. […] Fluorescent lifetimes in water are correspondingly shorter than in methanol.
Three symmetrical molecules, S-OPE-1 (H), S-OPE-1 (COOEt) and S-OPE-1 (COO—) show similar two-banded absorption spectra in water and methanol.
as §1

[4] = Solubility in water and polar organic solvents; type: physicochemical; conditions: water and polar organic solvents such as methanol
Excerpt: as §2

[5] = Self-assembly / complex formation on carboxymethylcellulose (absorption, fluorescence); type: binding; conditions: two-state model, dimer assumed; estimated from absorbances
Excerpt: N-OPE:CMC complexes can be formed by adding small aliquots of CMC to aqueous solutions containing the N-OPE compound. […] [N-OPE-1]=1.5×10^−5M. […] [N-OPE-2]=1.5×10^−5 and [CMC]=0-4.2×10^−5M. Both excitation and emission slits are 2.5 nm. Excitation wavelength for N-OPE-1 is 355 nm and for N-OPE-2 is 375 nm. For both N-OPEs there are several isosbestic points in the absorption spectra as the two bands in the absorption for water alone are replaced by a spectrum of the N-OPE:CMC having two bands at longer wavelength. For both N-OPEs the fluorescence also undergoes a red shift and increase in intensity as aliquots of CMC are added, finally leveling off at moderate concentrations (greater than 1 mM) of CMC. […]
Binding constants (assuming that an N-OPE dimer is formed in each case) can be estimated from a determination of the individual absorbances of the two species following a treatment for a similar two-state system developed by Pasternack and co-workers. […]
Self-assembly is not limited solely to the non-symmetrical N-OPE compounds. […] The changes that occur for S-OPE-1 (H), N-OPE-1 and S-OPE-1 (COOEt) (sharp, red shifted absorption spectra, isosbestic points maintained throughout the CMC addition and red-shifted fluorescence) are consistent with an extension of effective conjugation for the oligomers on the carboxylate decorated surface of the CMC.

[6] = suspensions of Pseudomonas, much slower than light-activated
[7] = exposed to bacteria in the dark, up to one hour

SMILES | τTA (μs) [1] [μs] | φf in CH3OH [3] | φf in H2O [3] | τ (ns) ([3]; column after φf in CH3OH) | τ (ns) ([3]; column after φf in H2O) | dark biocidal activity [2, 7] | biocidal activity [2] | light activated biocidal activity [2] | also measured
C[N+](C)(C)CCCOc1cc(C#Cc2ccc(C#Cc3cc(OCCC[N+](C)(C)C)c(C#Cc4ccccc4)cc3OCCC[N+](C)(C)C)cc2)c(OCCC[N+](C)(C)C)cc1C#Cc1ccccc1.[Cl-].[Cl-].[Cl-].[Cl-] [S-OPE-2 (x=H)] | – | – | – | – | – | – | – | – | light-activated biocidal activity (rank) ([2]; suspensions of Pseudomonas): S-OPE-1 (x=H)<S-OPE-2 (x=H); dark biocidal activity [2, 6]: observed
C[N+](C)(C)CCCOc1cc(C#Cc2ccc(C#Cc3cc(OCCC[N+](C)(C)C)c(C#Cc4ccc(C#Cc5cc(OCCC[N+](C)(C)C)c(C#Cc6ccccc6)cc5OCCC[N+](C)(C)C)cc4)cc3OCCC[N+](C)(C)C)cc2)c(OCCC[N+](C)(C)C)cc1C#Cc1ccccc1.[Cl-].[Cl-].[Cl-].[Cl-].[Cl-].[Cl-] [S-OPE-3 (x=H)] | – | – | – | – | – | – | – | – | dark biocidal activity [2, 6]: observed
CCOC(=O)c1ccc(C#Cc2cc(OCCC[N+](C)(C)C)c(C#Cc3ccc(C#Cc4cc(OCCC[N+](C)(C)C)c(C#Cc5ccccc5)cc4OCCC[N+](C)(C)C)cc3)cc2OCCC[N+](C)(C)C)cc1.[Cl-].[Cl-].[Cl-].[Cl-] [N-OPE-2] | – | – | – | – | – | active against bacteria both in the dark and in the light | active biocides both in solution and attached to surfaces | active against bacteria both in the dark and in the light | solubility [4]: readily soluble in water and polar organic solvents such as methanol; fluorescence quantum efficiency [3]: over 1%; Φf ([3]; solvent H2O): 0.012; τf (ns) ([3]; solvent H2O): 0.37 ns; Φf ([3]; solvent Methanol): 0.68; τf (ns) ([3]; solvent Methanol): 0.92 ns
CCOC(=O)c1ccc(C#Cc2cc(OCCC[N+](C)(C)C)c(C#Cc3ccccc3)cc2OCCC[N+](C)(C)C)cc1.[Cl-].[Cl-] [N-OPE-1] | 107 | 0.68 | 0.15 | 1.6 | 1.5 | relatively inactive | active biocides both in solution and attached to surfaces | active as a biocide | solubility [4]: readily soluble in water and polar organic solvents such as methanol; binding constant K, CMC:(N-OPE)2 [5]: less accurate and slightly lower; fluorescence quantum efficiency [3]: ~15%; Φf ([3]; solvent H2O): 0.147; τf (ns) ([3]; solvent H2O): 0.78 ns; Φf ([3]; solvent Methanol): 0.68; τf (ns) ([3]; solvent Methanol): 1.57 ns
CCOC(=O)c1ccc(C#Cc2cc(OCCC[N+](C)(C)C)c(C#Cc3ccc(C#Cc4cc(OCCC[N+](C)(C)C)c(C#Cc5ccc(C#Cc6cc(OCCC[N+](C)(C)C)c(C#Cc7ccccc7)cc6OCCC[N+](C)(C)C)cc5)cc4OCCC[N+](C)(C)C)cc3)cc2OCCC[N+](C)(C)C)cc1.[Cl-].[Cl-].[Cl-].[Cl-].[Cl-].[Cl-] [N-OPE-3] | – | – | – | – | – | active against bacteria both in the dark and in the light | active biocides both in solution and attached to surfaces | active against bacteria both in the dark and in the light | –

Second part, led by results:

τTA (μs) [1] [μs] | φf in CH3OH [3] | φf in H2O [3] | τ (ns) ([3]; column after φf in CH3OH) | τ (ns) ([3]; column after φf in H2O) | SMILES | dark biocidal activity [2, 7] | biocidal activity [2] | light activated biocidal activity [2] | also measured
216 | 0.82 | 0.80 | 1.4 | 1.6 | C[N+](C)(C)CCCOc1cc(C#Cc2ccccc2)c(OCCC[N+](C)(C)C)cc1C#Cc1ccccc1.[Cl-].[Cl-] [S-OPE-1 (H)] | – | – | – | light-activated biocidal activity (rank) ([2]; suspensions of Pseudomonas): S-OPE-1 (x=H)<S-OPE-2 (x=H); fluorescence efficiency in aqueous solution [3]: 0.80
136 | 0.74 | 0.70 | 1.3 | 1.5 | C[N+](C)(C)CCCOc1cc(C#Cc2ccc(C(=O)[O-])cc2)c(OCCC[N+](C)(C)C)cc1C#Cc1ccc(C(=O)[O-])cc1 [S-OPE-1 (COO—)] | – | – | – | –
77 | 0.75 | 0.023 | 1.4 | 1.0 | CCOC(=O)c1ccc(C#Cc2cc(OCCC[N+](C)(C)C)c(C#Cc3ccc(C(=O)OCC)cc3)cc2OCCC[N+](C)(C)C)cc1.[Cl-].[Cl-] [S-OPE-1 (COOEt)] | – | – | – | fluorescence efficiency in aqueous solution [3]: 0.02
